Assay results reported in patent US7598245B2 (Vertex Pharmaceuticals Incorporated, priority 2003, dated 2009).
Where “and” joins values, the source holds several entries; their conditions need not be identical. Equal entries are not always repeated. Where two headings read alike, the source gives them in different places.

Tests used:
FLT-3 = molecular target: T1, FLT-3 (Homo sapiens, UniProt P36888); experiment: Inhibition of FLT-3, radiometric filter-binding assay; assay type: biochemical; settings: 90 μM ATP, pE4Y substrate
T1 construct: 0.02% BSA and 3 nM FLT-3
T1 sequence (P36888 27-993): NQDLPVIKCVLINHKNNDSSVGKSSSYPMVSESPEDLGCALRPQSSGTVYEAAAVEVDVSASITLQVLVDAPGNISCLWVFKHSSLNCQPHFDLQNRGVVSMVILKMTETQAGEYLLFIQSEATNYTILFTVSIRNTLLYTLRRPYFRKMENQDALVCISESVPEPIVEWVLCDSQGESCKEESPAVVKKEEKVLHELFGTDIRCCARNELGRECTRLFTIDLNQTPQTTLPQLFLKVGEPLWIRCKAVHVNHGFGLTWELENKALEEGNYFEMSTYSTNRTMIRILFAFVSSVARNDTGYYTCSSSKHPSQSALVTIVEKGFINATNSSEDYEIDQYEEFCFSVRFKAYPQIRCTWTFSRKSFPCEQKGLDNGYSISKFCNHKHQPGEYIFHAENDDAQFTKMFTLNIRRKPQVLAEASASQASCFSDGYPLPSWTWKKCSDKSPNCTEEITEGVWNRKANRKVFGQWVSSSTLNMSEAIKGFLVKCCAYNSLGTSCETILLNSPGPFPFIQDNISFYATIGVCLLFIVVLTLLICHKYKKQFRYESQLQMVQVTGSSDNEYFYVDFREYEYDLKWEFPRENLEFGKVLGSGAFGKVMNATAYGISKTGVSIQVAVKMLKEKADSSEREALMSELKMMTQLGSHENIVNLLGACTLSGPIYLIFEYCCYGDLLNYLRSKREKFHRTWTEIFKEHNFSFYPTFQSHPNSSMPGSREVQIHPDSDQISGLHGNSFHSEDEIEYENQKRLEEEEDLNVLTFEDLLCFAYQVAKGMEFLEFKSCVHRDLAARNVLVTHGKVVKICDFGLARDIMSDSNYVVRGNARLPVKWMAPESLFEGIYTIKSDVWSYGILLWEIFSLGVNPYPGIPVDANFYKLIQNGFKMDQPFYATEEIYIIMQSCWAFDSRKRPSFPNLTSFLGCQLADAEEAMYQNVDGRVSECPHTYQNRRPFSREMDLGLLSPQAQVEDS
Experimental: Compounds were screened for their ability to inhibit FLT-3 activity using a radiometric filter-binding assay. This assay monitors the ^33P incorporation into a substrate poly(Glu, Tyr) 4:1 (pE4Y). Reactions were carried out in a solution containing 100 mM HEPES (pH 7.5), 10 mM MgCl2, 25 mM NaCl, 1 mM DTT, 0.01% BSA and 2.5% DMSO. Final substrate concentrations in the assay were 90 μM ATP and 0.5 mg/mL pE4Y (both from Sigma Chemicals, St Louis, Mo.). The final concentration of compounds is generally between 0.01 and 5 μM. Typically, a 12-point titration was conducted by preparing serial dilutions from 10 mM DMSO stock of test compound. Reactions were carried out at room temperature.
Two assay solutions were prepared. Solution 1 contains 100 mM HEPES (pH 7.5), 10 mM MgCl2, 25 mM NaCl, 1 mg/ml pE4Y and 180 μM ATP (containing 0.3 μCi of [γ-^33P]ATP for each reaction). Solution 2 contains 100 mM HEPES (pH 7.5), 10 mM MgCl2, 25 mM NaCl, 2 mM DTT, 0.02% BSA and 3 nM FLT-3. The assay was run on a 96 well plate by mixing 50 μL each of Solution1 and 2.5 mL of the test compounds. The reaction was initiated with Solution2. After incubation for 20 minutes at room temperature, the reaction was stopped with 50 μL of 20% TCA containing 0.4 mM of ATP. All of the reaction volume was then transferred to a filter plate and washed with 5% TCA by a Harvester9600 from TOMTEC (Hamden, Conn.). The amount of ^33P incorporation into pE4y was analyzed by a Packard TopCount Microplate Scintillation Counter (Meriden, Conn.). The data was fitted using Prism software to get an IC50 or Ki.

CDK-2/Cyclin A = molecular target: T2, CDK-2/Cyclin A (Homo sapiens, UniProt P24941); experiment: Inhibition of CDK-2, coupled enzyme assay; assay type: biochemical; settings: 100 μM ATP, 30° C.
T2 construct: 25 nM CDK-2/Cyclin A
Experimental: Compounds are screened for their ability to inhibit CDK-2/Cyclin A using a standard coupled enzyme assay [Fox et al. Protein Sci. 1998, 7, 2249]. Reactions were carried out in 100 mM HEPES (pH 7.5), 10 mM MgCl2, 25 mM NaCl, 1 mM DTT and 1.5% DMSO. Final substrate concentrations in the assay are 100 μM ATP (Sigma chemicals) and 100 μM peptide (American Peptide, Sunnyvale, Calif.). Assays are carried out at 30° C. and 25 nM CDK-2/Cyclin A. Final concentrations of the components of the coupled enzyme system are 2.5 mM phosphoenolpyruvate, 350 μM NADH, 30 μg/ml pyruvate kinase and 10 μg/ml lactate dehydrogenase.
An assay stock buffer solution is prepared containing all of the reagents listed above, with the exception of CDK-2/Cyclin A, DTT and the test compound of interest. 56 μl of the test reaction is placed in a 384 well plate followed by addition of 1 μl of 2 mM DMSO stock containing the test compound (final compound concentration 30 μM). The plate is preincubated for ˜10 minutes at 30° C. and the reaction initiated by addition of 10 μl of enzyme (final concentration 25 nM). Rates of reaction are obtained using a BioRad Ultramark plate reader (Hercules, Calif.) over a 5 minute read time at 30° C. Ki values are determined according to standard methods.

[1] = given as IC50 or Ki, read-out: IC50 or Ki values (FLT-3)

| Structure (SMILES) | Ki (FLT-3; read-out: Ki values (FLT-3)) | Ki (CDK-2/Cyclin A) | Ki (FLT-3; [1]) |
| --- | --- | --- | --- |
| COCC(=O)N1CCCN(c2cc(-n3cnc(Nc4ccccc4)n3)ccn2)CC1 [Compound I-71] | 0.03 to 0.2 µM | > 1 µM |  |
| CCOc1cccc(Nc2ncn(-c3ccccc3)n2)c1 [Compound I-45] | 0.001 to 0.03 µM | > 1 µM | < 0.1 µM |
| CC(C)C(=O)N1CCCN(c2cc(-n3cnc(Nc4ccccc4)n3)ccn2)CC1 [Compound I-69] | 0.03 to 0.2 µM | > 1 µM |  |
| CC(=O)N1[C@H](C)CN(c2cc(-n3cnc(Nc4ccc(NC(=O)c5cccs5)cc4)n3)ccn2)C[C@@H]1C [Compound I-80] | < 0.06 µM | < 0.5 µM |  |
| c1ccc(Nc2ncn(-c3ccnc(N4CCCCCCC4)c3)n2)cc1 [Compound I-52] |  | < 0.5 µM |  |
| CC(=O)N1[C@H](C)CN(c2cc(-n3cnc(Nc4ccc(N)cc4)n3)ccn2)C[C@@H]1C [Compound I-82] | < 0.06 µM | < 0.5 µM |  |
| CCCN(CCO)c1cc(-n2cnc(Nc3ccccc3)n2)ccn1 [Compound I-58] | 0.001 to 0.03 µM | < 0.5 µM |  |
| CN(Cc1cccnc1)c1cc(-n2cnc(Nc3ccccc3)n2)ccn1 [Compound I-57] | 0.001 to 0.03 µM | < 0.5 µM |  |
| CCCNC(=O)Nc1ccc(Nc2ncn(-c3ccnc(N4C[C@@H](C)N(C(C)=O)[C@@H](C)C4)c3)n2)cc1 [Compound I-99] | 0.001 to 0.03 µM | < 0.5 µM |  |
| CC(=O)N1[C@H](C)CN(c2cc(-n3cnc(Nc4ccccc4)n3)ccn2)C[C@@H]1C [Compound I-74] | < 0.06 µM | < 0.5 µM |  |
| O=C(CC1CCCC1)Nc1cc(-n2cnc(Nc3ccccc3)n2)ccn1 [Compound I-94, 2-Cyclopentyl-N-[4-(3-phenylamino-[1,2,4]triazol-1-yl)-pyridin-2-yl]-acetamide] | 0.001 to 0.03 µM | > 1 µM |  |
| CN(C)CCCN(C)c1cc(-n2cnc(Nc3ccccc3)n2)ccn1 [Compound I-53] |  | > 1 µM |  |
| c1ccc(-n2cnc(Nc3ccc4c(c3)OCCO4)n2)cc1 [Compound I-44] | 0.001 to 0.03 µM | > 1 µM | < 0.1 µM |
| CC(=O)N1[C@H](C)CN(c2cc(-n3cnc(Nc4ccc(N5CCOCC5)cc4)n3)ccn2)C[C@@H]1C [Compound I-85, 1-(2,6-Dimethyl-4-{4-[3-(4-morpholin-4-yl-phenylamino)-[1,2,4]triazol-1-yl]-pyridin-2-yl}-piperazin-1-yl)-ethanone] | 0.03 to 0.2 µM | < 0.5 µM |  |
| CN(Cc1ccccc1)c1cc(-n2cnc(Nc3ccccc3)n2)ccn1 [Compound I-55] | 0.001 to 0.03 µM | < 0.5 µM |  |
| CC(C)CC(=O)N1CCCN(c2cc(-n3cnc(Nc4ccccc4)n3)ccn2)CC1 [Compound I-70] |  | > 1 µM |  |
| CCOC(=O)c1ccc(Nc2ncn(-c3ccnc(N4C[C@@H](C)N(C(C)=O)[C@@H](C)C4)c3)n2)cc1 [Compound I-75] | 0.03 to 0.2 µM | 0.5 to 1 µM |  |
| c1ccc(Nc2ncn(-c3ccnc(N4CCCCCC4)c3)n2)cc1 [Compound I-73] | < 0.06 µM | < 0.5 µM |  |
| COc1cc(Nc2ncn(-c3ccc(C#N)cc3)n2)cc(OC)c1OC [Compound I-43] | 0.001 to 0.03 µM | 0.5 to 1 µM | < 0.1 µM |

| Structure (SMILES) | Ki (FLT-3; read-out: Ki values (FLT-3)) | Ki (CDK-2/Cyclin A) | Ki (FLT-3; [1]) |
| --- | --- | --- | --- |
| c1ccc(-n2cnc(Nc3ccnc(N4CCOCC4)c3)n2)cc1 [Compound I-105] | 0.001 to 0.03 µM | 0.5 to 1 µM |  |
| O=C(CCc1ccccc1)Nc1cc(-n2cnc(Nc3ccccc3)n2)ccn1 [Compound I-95] | 0.001 to 0.03 µM | 0.5 to 1 µM |  |
| N#CCC(=O)N1CCCN(c2cc(-n3cnc(Nc4ccccc4)n3)ccn2)CC1 [Compound I-72] | < 0.06 µM | < 0.5 µM |  |
| O=c1[nH]c2ccccc2n1C1CCN(c2cc(-n3cnc(Nc4ccccc4)n3)ccn2)CC1 [Compound I-63] | > 0.2 µM | > 1 µM |  |
| CC(=O)N1[C@H](C)CN(c2cc(-n3cnc(Nc4ccc(NC(=O)c5ccco5)cc4)n3)ccn2)C[C@@H]1C [Compound I-81, Furan-2-carboxylic acid (4-{1-[2-(4-acetyl-3,5-dimethyl-piperazin-1-yl)-pyridin-4-yl]-1H-[1,2,4]triazol-3-ylamino}-phenyl)-amide] | < 0.06 µM | 0.5 to 1 µM |  |
| CC(=O)N1[C@H](C)CN(c2cc(-n3cnc(Nc4ccc(NC(=O)OC(C)C)cc4)n3)ccn2)C[C@@H]1C [Compound I-89] | 0.03 to 0.2 µM | 0.5 to 1 µM |  |
| CC(C)Oc1cccc(Nc2ncn(-c3ccccc3)n2)c1 [Compound I-46] | 0.001 to 0.03 µM | > 1 µM | < 0.1 µM |
| CC(=O)N1[C@H](C)CN(c2cc(-n3cnc(Nc4ccc(N5CCN(C(=O)OC(C)(C)C)CC5)cc4)n3)ccn2)C[C@@H]1C [Compound I-97, 4-(4-{1-[2-(4-Acetyl-3,5-dimethyl-piperazin-1-yl)-pyridin-4-yl]-1H-[1,2,4]triazol-3-ylamino}-phenyl)-piperazine-1-carboxylic acid tert-butyl ester] | 0.001 to 0.03 µM | < 0.5 µM |  |
| CC(=O)N1[C@H](C)CN(c2cc(-n3cnc(Nc4ccc(NC(=O)OCC(C)C)cc4)n3)ccn2)C[C@@H]1C [Compound I-90] | 0.03 to 0.2 µM | 0.5 to 1 µM |  |
| c1ccc(-n2cnc(Nc3ccc(N4CCOCC4)nc3)n2)cc1 [Compound I-134] | 0.03 to 0.2 µM and > 0.2 µM | > 1 µM |  |
| CC1CCCN1c1cc(-n2cnc(Nc3ccccc3)n2)ccn1 (centres unmarked) [Compound I-56] | 0.001 to 0.03 µM | < 0.5 µM |  |
| CC(=O)N1[C@H](C)CN(c2cc(-n3cnc(Nc4ccc(NC(=O)OCC(C)(C)C)cc4)n3)ccn2)C[C@@H]1C [Compound I-91] | 0.03 to 0.2 µM | 0.5 to 1 µM |  |
| CC(=O)N1[C@H](C)CN(c2cc(-n3cnc(Nc4ccc(NC(=O)NC(C)C)cc4)n3)ccn2)C[C@@H]1C [Compound I-100] | 0.001 to 0.03 µM | < 0.5 µM |  |
| CCCC(=O)N1CCCN(c2cc(-n3cnc(Nc4ccccc4)n3)ccn2)CC1 [Compound I-68] | 0.03 to 0.2 µM | > 1 µM |  |
| OC[C@H]1CCCN(c2cc(-n3cnc(Nc4ccccc4)n3)ccn2)C1 [Compound I-65] |  | < 0.5 µM |  |
| O=C(Nc1cc(-n2cnc(Nc3ccccc3)n2)ccn1)C1CCCCC1 [Compound I-93] |  | 0.5 to 1 µM |  |
| CCN(CCO)c1cc(-n2cnc(Nc3ccccc3)n2)ccn1 [Compound I-54] |  | < 0.5 µM |  |
| CN1C(C)(C)CC(Nc2cc(-n3cnc(Nc4ccccc4)n3)ccn2)CC1(C)C [Compound I-61] |  | 0.5 to 1 µM |  |
